Key:
PARG [1] = molecular target: T1, PARG (Homo sapiens (Human), UniProt Q86W56); assay: PARG target engagement cellular assay (PAR polymer immunostaining after cisplatin); format: cell-based; conditions: HCC1806 cells treated with cisplatin, then compound titration for 1 h; PAR polymer antibody readout
Experimental: Example a. Inhibition of PARG Target Engagement Cellular Assay
The ability of the compounds of the Examples to inhibit PARG was determined as described below. After treating HCC1806 cells with cisplatin, followed by PARG inhibitor compound titration for 1 h, the cells were fixed in formaldehyde. The cells were permeabilized, blocked, and incubated with antibody against poly (ADP) ribose (PAR) polymer. The cells were then washed and incubated with IR 800 conjugated secondary antibody together with TO-PRO3 iodide nuclear stain. After washing, images of the cells were captured and analyzed on Odyssey CLx instrument and analyzed using LI-COR image studio software.

PARG [2] = molecular target: T1, PARG; assay: PARG TFMU assay (4-(trifluoromethyl)umbelliferone substrate); format: biochemical; conditions: PARG 250 pM or 2 nM, 10-point dose response
Experimental: Example C. Inhibition of PARG TEMU Assay
The ability of the compounds of the Examples to inhibit PARG activity in 4. (trifluoromethyl)umbelliferone (TFMU) assay was determined as described below. PARG inhibitors were added into 384 well plate for a 10-point dose response curve at 1:3 dilutions. TFMU PARG substrate and PARG (250 pM or 2 nM) were then added to the plate to initiate enzymatic reaction. After incubation with the reagent, […] was read. IC50 values were calculated using set control points for 100% inhibition as no enzyme and 0% inhibition 250 pM or 2 nM of PARG enzyme.

T1 sequence (Q86W56 whole entry): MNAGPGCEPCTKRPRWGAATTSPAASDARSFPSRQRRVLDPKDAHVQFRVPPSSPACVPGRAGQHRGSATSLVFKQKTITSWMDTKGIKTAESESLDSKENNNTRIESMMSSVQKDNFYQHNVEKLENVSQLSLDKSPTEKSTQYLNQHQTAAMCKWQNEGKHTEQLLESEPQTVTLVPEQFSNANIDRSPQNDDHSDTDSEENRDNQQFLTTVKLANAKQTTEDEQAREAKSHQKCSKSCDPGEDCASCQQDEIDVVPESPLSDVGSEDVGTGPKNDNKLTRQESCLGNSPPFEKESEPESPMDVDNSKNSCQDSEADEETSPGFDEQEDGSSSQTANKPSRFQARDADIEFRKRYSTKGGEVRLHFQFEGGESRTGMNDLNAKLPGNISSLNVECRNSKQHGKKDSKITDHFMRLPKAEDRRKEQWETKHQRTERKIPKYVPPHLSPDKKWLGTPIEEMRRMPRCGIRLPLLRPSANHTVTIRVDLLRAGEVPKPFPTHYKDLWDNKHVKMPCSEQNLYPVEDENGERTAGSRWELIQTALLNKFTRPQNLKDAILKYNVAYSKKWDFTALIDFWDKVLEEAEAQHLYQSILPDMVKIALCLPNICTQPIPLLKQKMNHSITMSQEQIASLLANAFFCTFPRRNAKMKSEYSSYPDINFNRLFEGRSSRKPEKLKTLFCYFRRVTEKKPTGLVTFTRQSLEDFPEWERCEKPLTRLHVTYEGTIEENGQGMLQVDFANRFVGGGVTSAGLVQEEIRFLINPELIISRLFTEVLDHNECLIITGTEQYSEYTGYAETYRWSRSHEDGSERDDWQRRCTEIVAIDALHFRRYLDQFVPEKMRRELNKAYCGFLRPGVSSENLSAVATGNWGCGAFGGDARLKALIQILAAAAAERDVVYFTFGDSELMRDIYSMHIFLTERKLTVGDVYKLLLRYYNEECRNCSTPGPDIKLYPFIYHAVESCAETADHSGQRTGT

Compound | IC50 (PARG [1]) | IC50 (PARG [2])
CCn1c(=O)c2cc(S(=O)(=O)N[C@@]3(C)C[C@H]3CCO)ccc2n(CC)c1=O (single isomer, unassigned) [Example 15A] | > 100 µM | 500 to 5000 nM
CC(C)C(=O)N1CCN(c2cc(S(=O)(=O)NC3(C)COC3)cc3c2cnn3-c2nnc(C(F)F)s2)CC1 [Example 6, 1-[5-(difluoromethyl)-1,3,4-thiadiazol-2-yl]-N-(3-methyloxetan-3-yl)-4-[4-(2-methylpropanoyl)piperazin-1-yl]indazole-6-sulfonamide] | < 10 µM | < 50 nM
NC(=O)/C=C/Cn1c(=O)[nH]c2ccc(S(=O)(=O)NC34CC(C3)C4)cc2c1=O [Example 3, (2E)-4-[6-({bicyclo[1.1.1]pentan-1-yl}sulfamoyl)-2,4-dioxo-1H-quinazolin-3-yl]but-2-enamide] | > 100 µM | 500 to 5000 nM
CCn1c(=O)c2cc(S(=O)(=O)NC3(CF)COC3)ccc2n(CC)c1=O [Example 20, 1,3-diethyl-N-(3-(fluoromethyl)oxetan-3-yl)-2,4-dioxo-1,2,3,4-tetrahydroquinazoline-6-sulfonamide] | 10 to 100 µM | 50 to 500 nM
CCn1c(=O)c2cc(S(=O)(=O)NC3(C)COC3)ccc2n(CC)c1=O [Example 4, 1,3-diethyl-N-(3-methyloxetan-3-yl)-2,4-dioxoquinazoline-6-sulfonamide] | 10 to 100 µM | 50 to 500 nM
CCn1c(=O)c2cc(S(=O)(=O)NC3(C)CSC3)ccc2n(CC)c1=O [Example 5, 1,3-diethyl-N-(3-methylthietan-3-yl)-2,4-dioxoquinazoline-6-sulfonamide] | > 100 µM | 500 to 5000 nM
CCn1c(=O)c2cc(S(=O)(=O)NC3(C)CCC3)ccc2n(CC)c1=O [Example 7, 1,3-diethyl-N-(1-methylcyclobutyl)-2,4-dioxoquinazoline-6-sulfonamide] | > 100 µM | ≥ 5000 nM
COC(=O)/C=C/Cn1c(=O)c2cc(S(=O)(=O)NC3(C)COC3)ccc2n(CC2COC2)c1=O [Example 11, methyl (2E)-4-{6-[(3-methyloxetan-3-yl)sulfamoyl]-1-(oxetan-3-ylmethyl)-2,4-dioxoquinazolin-3-yl}but-2-enoate] | < 10 µM | 500 to 5000 nM
CCn1c(=O)c2cc(S(=O)(=O)NC3(C)CCOC3)ccc2n(CC)c1=O (centres unmarked) [Example 8, 1,3-diethyl-N-(3-methyloxolan-3-yl)-2,4-dioxoquinazoline-6-sulfonamide] | > 100 µM | 
CCn1c(=O)c2cc(S(=O)(=O)NC3(C#N)COC3)ccc2n(CC)c1=O [Example 10, N-(3-cyanooxetan-3-yl)-1,3-diethyl-2,4-dioxoquinazoline-6-sulfonamide] | 10 to 100 µM | 500 to 5000 nM
CCn1c(=O)c2cc(S(=O)(=O)N[C@@]3(C)C[C@H]3CC#N)ccc2n(CC)c1=O (racemic) [Example 16, N-((1SR,2SR)-2-(cyanomethyl)-1-methylcyclopropyl)-1,3-diethyl-2,4-dioxo-1,2,3,4-tetrahydroquinazoline-6-sulfonamide] | > 100 µM | ≥ 5000 nM
CN(CC(F)F)C(=O)N1CCN(c2cc(S(=O)(=O)NC3(C#N)COC3)cc3c2cnn3-c2nnc(C(F)F)s2)CC1 [Example 41, 4-(6-(N-(3-cyanooxetan-3-yl)sulfamoyl)-1-(5-(difluoromethyl)-1,3,4-thiadiazol-2-yl)-1H-indazol-4-yl)-N-(2,2-difluoroethyl)-N-methylpiperazine-1-carboxamide] |  | < 50 nM
CC(C)S(=O)(=O)N1CCN(c2cc(S(=O)(=O)NC3(C)COC3)cc3c2cnn3-c2nnc(C(F)F)s2)CC1 [Example 33, 1-(5-(difluoromethyl)-1,3,4-thiadiazol-2-yl)-4-(4-(isopropylsulfonyl)piperazin-1-yl)-N-(3-methyloxetan-3-yl)-1H-indazole-6-sulfonamide] |  | < 50 nM
CN(C)c1cc(S(=O)(=O)NC2(C)COC2)cc2c1cnn2-c1nnc(C(F)F)s1 [Example 26, 1-(5-(difluoromethyl)-1,3,4-thiadiazol-2-yl)-4-(dimethylamino)-N-(3-methyloxetan-3-yl)-1H-indazole-6-sulfonamide] |  | 50 to 500 nM
CC(C)C(=O)N1CCN(c2cc(S(=O)(=O)NC3(C#N)COC3)cc3c2cnn3-c2nnc(C(F)F)s2)CC1 [Example 30, N-(3-cyanooxetan-3-yl)-1-(5-(difluoromethyl)-1,3,4-thiadiazol-2-yl)-4-(4-isobutyrylpiperazin-1-yl)-1H-indazole-6-sulfonamide] |  | < 50 nM
CC(C)C(=O)N1CCN(c2cc(S(=O)(=O)NC3(C)COC3)cc3c2cnn3-c2nnc(Br)s2)CC1 [Example 81, 1-(5-bromo-1,3,4-thiadiazol-2-yl)-4-(4-isobutyrylpiperazin-1-yl)-N-(3-methyloxetan-3-yl)-1H-indazole-6-sulfonamide] |  | < 50 nM

Compound | IC50 (PARG [1]) | IC50 (PARG [2])
Cc1nnc(-n2ncc3c(N4CCN(C(=O)C(C)C)CC4)cc(S(=O)(=O)NC4(CF)COC4)cc32)s1 [Example 42, N-(3-(fluoromethyl)oxetan-3-yl)-4-(4-isobutyrylpiperazin-1-yl)-1-(5-methyl-1,3,4-thiadiazol-2-yl)-1H-indazole-6-sulfonamide] |  | < 50 nM
O=C(C1CCCC1)N1CCN(c2cc(S(=O)(=O)NC3(CF)COC3)cc3c2cnn3-c2nnc(C(F)F)s2)CC1 [Example 34, 4-(4-(cyclopentanecarbonyl)piperazin-1-yl)-1-(5-(difluoromethyl)-1,3,4-thiadiazol-2-yl)-N-(3-(fluoromethyl)oxetan-3-yl)-1H-indazole-6-sulfonamide] |  | < 50 nM
CN(CC(F)F)C(=O)N1CCN(c2cc(S(=O)(=O)NC3(CF)COC3)cc3c2cnn3-c2nnc(C(F)F)s2)CC1 [Example 77, N-(2,2-difluoroethyl)-4-(1-(5-(difluoromethyl)-1,3,4-thiadiazol-2-yl)-6-(N-(3-(fluoromethyl)oxetan-3-yl)sulfamoyl)-1H-indazol-4-yl)-N-methylpiperazine-1-carboxamide] |  | < 50 nM
CCn1c(=O)c2cc(S(=O)(=O)N[C@H]3CC[C@@H]3CO)ccc2n(CC)c1=O (single isomer, unassigned) [Example 75] |  | ≥ 5000 nM
Cc1ncc(Cn2c(=O)[nH]c3ccc(S(=O)(=O)NC4(C#N)COC4)cc3c2=O)s1 [Example 25A, N-(3-cyanooxetan-3-yl)-3-((2-methylthiazol-5-yl)methyl)-2,4-dioxo-1,2,3,4-tetrahydroquinazoline-6-sulfonamide] |  | 50 to 500 nM
N#CC1(NS(=O)(=O)c2cc(N3CCN(C(=O)C4CC4)CC3)c3cnn(-c4nnc(C(F)F)s4)c3c2)COC1 [Example 39, N-(3-cyanooxetan-3-yl)-4-(4-(cyclopropanecarbonyl)piperazin-1-yl)-1-(5-(difluoromethyl)-1,3,4-thiadiazol-2-yl)-1H-indazole-6-sulfonamide] |  | < 50 nM
Cc1ncc(Cn2c(=O)[nH]c3ccc(S(=O)(=O)NC4(CF)COC4)cc3c2=O)s1 [Example 28A, N-(3-(fluoromethyl)oxetan-3-yl)-3-((2-methylthiazol-5-yl)methyl)-2,4-dioxo-1,2,3,4-tetrahydroquinazoline-6-sulfonamide] |  | 50 to 500 nM
CC(C)C(=O)N1CCN(c2cc(S(=O)(=O)N[C@@]3(C)CO[C@H]3C)cc3c2cnn3-c2nnc(C(F)F)s2)CC1 (single isomer, unassigned) [Example 27] |  | < 50 nM
COc1cc(S(=O)(=O)NC2(C)COC2)cc2c1cnn2-c1nnc(C(F)F)s1 [Example 73, 1-(5-(difluoromethyl)-1,3,4-thiadiazol-2-yl)-4-methoxy-N-(3-methyloxetan-3-yl)-1H-indazole-6-sulfonamide] |  | 50 to 500 nM
CN(CC(F)F)C(=O)N1CCN(c2cc(S(=O)(=O)NC3(C)COC3)cc3c2cnn3-c2nnc(C(F)F)s2)CC1 [Example 37, N-(2,2-difluoroethyl)-4-(1-(5-(difluoromethyl)-1,3,4-thiadiazol-2-yl)-6-(N-(3-methyloxetan-3-yl)sulfamoyl)-1H-indazol-4-yl)-N-methylpiperazine-1-carboxamide] |  | < 50 nM
N#CC1(NS(=O)(=O)c2cc(N3CCN(C(=O)N4CCCC4)CC3)c3cnn(-c4nnc(C(F)F)s4)c3c2)COC1 [Example 38, N-(3-cyanooxetan-3-yl)-1-(5-(difluoromethyl)-1,3,4-thiadiazol-2-yl)-4-(4-(pyrrolidine-1-carbonyl)piperazin-1-yl)-1H-indazole-6-sulfonamide] |  | < 50 nM
CCn1c(=O)c2cc(S(=O)(=O)N[C@@]3(C#N)CO[C@H]3C)ccc2n(CC)c1=O (single isomer, unassigned) [Example 61] |  | 500 to 5000 nM
CN1CCN(c2cc(S(=O)(=O)NC3(C)COC3)cc3c2cnn3-c2nnc(C(F)F)s2)CC1 [Example 48, 1-(5-(difluoromethyl)-1,3,4-thiadiazol-2-yl)-N-(3-methyloxetan-3-yl)-4-(4-methylpiperazin-1-yl)-1H-indazole-6-sulfonamide] |  | 50 to 500 nM
CCn1c(=O)c2cc(S(=O)(=O)N[C@@]3(C#N)C[C@@H]3CO)ccc2n(CC)c1=O (single isomer, unassigned) [Example 78] |  | ≥ 5000 nM
CCn1c(=O)c2cc(S(=O)(=O)NC3(C)CNC3)ccc2n(CC)c1=O [Example 49, 1,3-diethyl-N-(3-methylazetidin-3-yl)-2,4-dioxo-1,2,3,4-tetrahydroquinazoline-6-sulfonamide] |  | 500 to 5000 nM
